Reference: PubChem BioAssay (NCI)
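Dose response: 5 concentrations. Exposure: 48 h. Format: 96-well plates. Endpoint: linear interpolation; highest concentration if not reached. TGI denotes the concentration required for complete inhibition of growth.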

Columns and labels:
Assay in all cases: inhibition of tumour cell growth, NCI panel, 48 h
[1] = tested on: 786-0 renal
[2] = tested on: A498 renal
[3] = tested on: A549 NSCLC
[4] = tested on: ACHN renal
[5] = tested on: CCRF-CEM leukemia
[6] = tested on: COLO 205 colon
[7] = tested on: EKVX NSCLC
[8] = tested on: HCC-2998 colon
[9] = tested on: HCT-116 colon
[10] = tested on: HOP-62 NSCLC
[11] = tested on: HOP-92 NSCLC
[12] = tested on: HS 578T breast
[13] = tested on: HT29 colon
[14] = tested on: IGROV1 ovarian
[15] = tested on: KM12 colon
[16] = tested on: LOX IMVI melanoma
[17] = tested on: M14 melanoma
[18] = tested on: MALME-3M melanoma
[19] = tested on: MCF7 breast
[20] = tested on: MDA-MB-231 breast
[21] = tested on: MDA-MB-435
[22] = tested on: MDA-N
[23] = tested on: MOLT-4 leukemia
[24] = tested on: NCI-H226 lung
[25] = tested on: NCI-H23 lung
[26] = tested on: NCI-H522 lung
[27] = tested on: NCI/ADR-RES ovarian
[28] = tested on: OVCAR-3 ovarian
[29] = tested on: OVCAR-4 ovarian
[30] = tested on: OVCAR-5 ovarian
[31] = tested on: OVCAR-8 ovarian
[32] = tested on: PC-3 prostate
[33] = tested on: RPMI-8226 leukemia
[34] = tested on: RXF 393 renal
[35] = tested on: SF-295 CNS
[36] = tested on: SF-539 CNS
[37] = tested on: SK-MEL-2 melanoma
[38] = tested on: SK-MEL-5 melanoma
[39] = tested on: SK-OV-3 ovarian
[40] = tested on: SN12C renal
[41] = tested on: SR leukemia
[42] = tested on: T-47D breast
[43] = tested on: TK-10 renal
[44] = tested on: U251 CNS
[45] = tested on: UACC-257 melanoma
[46] = tested on: UACC-62 melanoma
[47] = tested on: UO-31 renal
[48] = tested on: CAKI-1 renal
[49] = tested on: DU-145 prostate
[50] = tested on: HCT-15 colon
[51] = tested on: HL-60(TB) leukemia
[52] = tested on: K-562 leukemia
[53] = tested on: NCI-H460 lung
[54] = tested on: SF-268 CNS
[55] = tested on: SK-MEL-28 melanoma
[56] = tested on: SNB-19 CNS
[57] = tested on: SNB-75 CNS
[58] = tested on: SW-620 colon

## COC(=O)CCC(=O)c1ccc2c(c1)CC1(Cc3ccccc3C1)C2
[1]
  TGI: > 100 µM
[2]
  TGI: > 100 µM
[3]
  TGI: > 100 µM
[4]
  TGI: > 100 µM
[5]
  TGI: 45.4 µM
[6]
  TGI: 82.3 µM
[7]
  TGI: > 100 µM
[8]
  TGI: > 100 µM
[9]
  TGI: > 100 µM
[10]
  TGI: > 100 µM
[11]
  TGI: > 100 µM
[12]
  TGI: > 100 µM
[13]
  TGI: 43.9 µM
[14]
  TGI: > 100 µM
[15]
  TGI: > 100 µM
[16]
  TGI: > 100 µM
[17]
  TGI: > 100 µM
[18]
  TGI: > 100 µM
[19]
  TGI: > 100 µM
[20]
  TGI: > 100 µM
[21]
  TGI: > 100 µM
[22]
  TGI: > 100 µM
[23]
  TGI: 52.6 µM
[24]
  TGI: 94.9 µM
[25]
  TGI: > 100 µM
[26]
  TGI: > 100 µM
[27]
  TGI: > 100 µM
[28]
  TGI: > 100 µM
[29]
  TGI: > 100 µM
[30]
  TGI: > 100 µM
[31]
  TGI: > 100 µM
[32]
  TGI: > 100 µM
[33]
  TGI: > 100 µM
[34]
  TGI: > 100 µM
[35]
  TGI: > 100 µM
[36]
  TGI: > 100 µM
[37]
  TGI: > 100 µM
[38]
  TGI: 33.1 µM
[39]
  TGI: > 100 µM
[40]
  TGI: > 100 µM
[41]
  TGI: 34 µM
[42]
  TGI: > 100 µM
[43]
  TGI: > 100 µM
[44]
  TGI: > 100 µM
[45]
  TGI: 84.2 µM
[46]
  TGI: > 100 µM
[47]
  TGI: 80.3 µM

## O=C1OCC(CN2CCC(n3c(=O)[nH]c4ccccc43)CC2)=C1c1ccccc1
[1]
  TGI: 82.5 µM
[2]
  TGI: 68.6 µM
[3]
  TGI: > 100 µM
[4]
  TGI: 89.6 µM
[48]
  TGI: 51.4 µM
[5]
  TGI: 60.5 µM
[6]
  TGI: 28.1 µM
[49]
  TGI: 71.7 µM
[7]
  TGI: 57.1 µM
[8]
  TGI: 77.2 µM
[9]
  TGI: 92.7 µM
[50]
  TGI: 54.9 µM
[51]
  TGI: 40.7 µM
[10]
  TGI: 64.5 µM
[12]
  TGI: 60.4 µM
[13]
  TGI: 58.6 µM
[14]
  TGI: 51.1 µM
[52]
  TGI: > 100 µM
[15]
  TGI: 31.2 µM
[16]
  TGI: 56.2 µM
[17]
  TGI: 33.4 µM
[18]
  TGI: 56.6 µM
[19]
  TGI: 96.4 µM
[20]
  TGI: 79.3 µM
[21]
  TGI: 62.4 µM
[22]
  TGI: 78.7 µM
[23]
  TGI: 60 µM
[24]
  TGI: 76.7 µM
[25]
  TGI: 52.2 µM
[53]
  TGI: 21.2 µM
[26]
  TGI: 46.5 µM
[27]
  TGI: 59.6 µM
[28]
  TGI: 60.6 µM
[29]
  TGI: 39.6 µM
[30]
  TGI: > 100 µM
[31]
  TGI: 31.6 µM
[32]
  TGI: 41.6 µM
[33]
  TGI: 56.1 µM
[34]
  TGI: > 100 µM
[54]
  TGI: 95.5 µM
[35]
  TGI: 72.6 µM
[36]
  TGI: 35.6 µM
[37]
  TGI: 38.1 µM
[55]
  TGI: 61 µM
[38]
  TGI: 28.9 µM
[39]
  TGI: 94.2 µM
[40]
  TGI: 53.1 µM
[56]
  TGI: 67.3 µM
[57]
  TGI: 72.4 µM
[41]
  TGI: 82.5 µM
[58]
  TGI: > 100 µM
[42]
  TGI: 24.6 µM
[43]
  TGI: 63.1 µM
[44]
  TGI: > 100 µM
[45]
  TGI: 47.3 µM
[46]
  TGI: 26.9 µM
[47]
  TGI: 35.2 µM

## CSc1cc(Cl)c(C)cc1S(=O)(=O)NC(=O)NNc1cnc2ccccc2n1
[1]
  TGI: > 100 µM
[2]
  TGI: > 100 µM
[3]
  TGI: > 100 µM
[4]
  TGI: > 100 µM
[48]
  TGI: > 100 µM
[5]
  TGI: > 100 µM
[6]
  TGI: > 100 µM
[49]
  TGI: > 100 µM
[7]
  TGI: > 100 µM
[8]
  TGI: > 100 µM
[9]
  TGI: > 100 µM
[50]
  TGI: > 100 µM
[10]
  TGI: > 100 µM
[12]
  TGI: > 100 µM
[13]
  TGI: > 100 µM
[14]
  TGI: > 100 µM
[52]
  TGI: > 100 µM
[15]
  TGI: > 100 µM
[16]
  TGI: > 100 µM
[17]
  TGI: > 100 µM
[18]
  TGI: > 100 µM
[19]
  TGI: > 100 µM
[20]
  TGI: > 100 µM
[21]
  TGI: > 100 µM
[22]
  TGI: > 100 µM
[23]
  TGI: 56.8 µM
[24]
  TGI: > 100 µM
[53]
  TGI: > 100 µM
[26]
  TGI: > 100 µM
[27]
  TGI: > 100 µM
[28]
  TGI: > 100 µM
[29]
  TGI: > 100 µM
[30]
  TGI: > 100 µM
[31]
  TGI: > 100 µM
[32]
  TGI: > 100 µM
[34]
  TGI: > 100 µM
[54]
  TGI: > 100 µM
[35]
  TGI: > 100 µM
[36]
  TGI: > 100 µM
[37]
  TGI: > 100 µM
[55]
  TGI: > 100 µM
[38]
  TGI: > 100 µM
[39]
  TGI: > 100 µM
[40]
  TGI: > 100 µM
[56]
  TGI: > 100 µM
[41]
  TGI: > 100 µM
[58]
  TGI: > 100 µM
[42]
  TGI: > 100 µM
[44]
  TGI: > 100 µM

## CC(C)[Si](CC1=CCCCC12C(=O)N(COCC[Si](C)(C)C)c1ccccc12)(C(C)C)C(C)C (stereo not drawn)
[1]
  TGI: > 100 µM
[2]
  TGI: > 100 µM
[3]
  TGI: > 100 µM
[4]
  TGI: > 100 µM
[48]
  TGI: > 100 µM
[5]
  TGI: 36.6 µM
[6]
  TGI: > 100 µM
[49]
  TGI: > 100 µM
[7]
  TGI: > 100 µM
[8]
  TGI: > 100 µM
[50]
  TGI: > 100 µM
[10]
  TGI: > 100 µM
[11]
  TGI: > 100 µM
[12]
  TGI: > 100 µM
[13]
  TGI: > 100 µM
[14]
  TGI: > 100 µM
[52]
  TGI: > 100 µM
[15]
  TGI: > 100 µM
[16]
  TGI: > 100 µM
[17]
  TGI: > 100 µM
[18]
  TGI: > 100 µM
[19]
  TGI: > 100 µM
[20]
  TGI: > 100 µM
[21]
  TGI: > 100 µM
[22]
  TGI: > 100 µM
[23]
  TGI: > 100 µM
[24]
  TGI: > 100 µM
[25]
  TGI: > 100 µM
[53]
  TGI: > 100 µM
[26]
  TGI: > 100 µM
[27]
  TGI: > 100 µM
[28]
  TGI: > 100 µM
[29]
  TGI: > 100 µM
[30]
  TGI: 80.9 µM
[31]
  TGI: > 100 µM
[32]
  TGI: > 100 µM
[33]
  TGI: > 100 µM
[34]
  TGI: 54.2 µM
[54]
  TGI: > 100 µM
[35]
  TGI: > 100 µM
[36]
  TGI: > 100 µM
[37]
  TGI: > 100 µM
[55]
  TGI: > 100 µM
[38]
  TGI: > 100 µM
[39]
  TGI: > 100 µM
[56]
  TGI: > 100 µM
[57]
  TGI: > 100 µM
[41]
  TGI: > 100 µM
[58]
  TGI: > 100 µM
[42]
  TGI: 96.9 µM
[43]
  TGI: > 100 µM
[44]
  TGI: > 100 µM
[45]
  TGI: > 100 µM
[46]
  TGI: > 100 µM
[47]
  TGI: > 100 µM
